Reference: article PMC11637875, “Discovery of novel PARP1/NRP1 dual-targeting inhibitors with strong antitumor potency” (Frontiers in Pharmacology, 2024)

Key:
ACK = ACK (Homo sapiens, UniProt Q07912); assay: Selectivity profile (123 kinase panel); type: biochemical
NuaK2 = NuaK2 (Homo sapiens, UniProt Q9H093); assay: Selectivity profile (123 kinase panel); type: biochemical
DAPK1 = DAPK1 (Homo sapiens, UniProt P53355); assay: Selectivity profile (123 kinase panel); type: biochemical
MDA-MB-231 cells = assay: In vitro antiproliferation assay (MTT); type: cell-based; conditions: Homo sapiens, MDA-MB-231
Experimental: Cell viability was measured by MTT assays. […] Afterward, the medium was removed. MTT (5 mg/mL) was dissolved in phosphate-buffered saline (PBS) and filter-sterilized, and then, 20 μL of the prepared MTT solution was added to each well, and the cells were incubated for another 4 h until a purple precipitate was visible. The supernatant was removed by centrifugation, and DMSO (150 μL/well) was added to dissolve the insoluble crystals. The absorbance was determined using an enzyme-linked immunosorbent assay reader at a test wavelength of 570 nm. The assays were performed three times in a parallel manner. The non-linear regression was used to plot a Dose-Response-Inhibition to determine the value of the IC50. […] The data were analyzed using GraphPad Prism 9 software.

EPHA7 = EPHA7 (Homo sapiens, UniProt Q15375); assay: Selectivity profile (123 kinase panel); type: biochemical
HEK-293 = assay: Cytotoxicity on normal human cells (MTT); type: cell-based; conditions: HEK293, HEK-293 normal human cells
Experimental: (§1) Cell viability was measured by MTT assays. MDA-MB-231, MCF-10A, L02, FHC, PNT1A, HEL-299, and HEK-293 cell lines were seeded in 96-well plates at 5 ×10^4 cells/well and incubated overnight. Different concentrations of PPNR1-5 or positive control were then added to each well and cultured at 37°C for 72 h. Afterward, the medium was removed. MTT (5 mg/mL) was dissolved in phosphate-buffered saline (PBS) and filter-sterilized, and then, 20 μL of the prepared MTT solution was added to each well, and the cells were incubated for another 4 h until a purple precipitate was visible. The supernatant was removed by centrifugation, and DMSO (150 μL/well) was added to dissolve the insoluble crystals. The absorbance was determined using an enzyme-linked immunosorbent assay reader at a test wavelength of 570 nm. The assays were performed three times in a parallel manner. The non-linear regression was used to plot a Dose-Response-Inhibition to determine the value of the IC50. The cell inhibition rate was calculated at 2 μM concentration of compound treatment. The data were analyzed using GraphPad Prism 9 software.

L02 = assay: Cytotoxicity on normal human cells (MTT); type: cell-based
Experimental: as §1

HEL-299 = assay: Cytotoxicity on normal human cells (MTT); type: cell-based; conditions: HEL-299 normal human cells
Experimental: as §1

PNT1A = assay: Cytotoxicity on normal human cells (MTT); type: cell-based
Experimental: as §1

FHC = assay: Cytotoxicity on normal human cells (MTT); type: cell-based
Experimental: as §1

MCF-10A = assay: Cytotoxicity on normal human cells (MTT); type: cell-based; conditions: MCF-10A normal human mammary epithelial cells
Experimental: as §1

MRCKα = MRCKα (Homo sapiens, UniProt Q5VT25); assay: Selectivity profile (123 kinase panel); type: biochemical
FGFR1 = FGFR1 (Homo sapiens, UniProt P11362); assay: Selectivity profile (123 kinase panel); type: biochemical
DCAMKL2 = DCAMKL2 (Homo sapiens, UniProt Q8N568); assay: Selectivity profile (123 kinase panel); type: biochemical
FGFR4 = FGFR4 (Homo sapiens, UniProt P22455); assay: Selectivity profile (123 kinase panel); type: biochemical
MST1 = MST1 (Homo sapiens, UniProt Q13043); assay: Selectivity profile (123 kinase panel); type: biochemical
EPHB4 = EPHB4 (Homo sapiens, UniProt P54760); assay: Selectivity profile (123 kinase panel); type: biochemical
KDR = KDR (Homo sapiens, UniProt P35968); assay: Selectivity profile (123 kinase panel); type: biochemical
NRP2 = NRP2 (Homo sapiens, UniProt O60462); assay: Selectivity profile (other isoforms of PARP and NRP family); type: biochemical
EPHA5 = EPHA5 (Homo sapiens, UniProt P54756); assay: Selectivity profile (123 kinase panel); type: biochemical
PARP1 = target: T1, PARP1 (Homo sapiens, UniProt P09874); assay: In vitro PARP1 inhibition assay (chemiluminescence); type: biochemical; conditions: PARP1 enzyme 0.6 units/well
T1 construct: purchased Abcam
Experimental: In each well, 50 μL of 1 × PARP1 buffer was added and incubated for 30 min at room temperature. The 1 × PARP1 buffer was removed from the wells, and then 25 μL of 1 × PARP1 cocktail was added to each well along with varying doses of compounds and PARP1 enzyme (0.6 units/well). Incubated and washed twice with PBS and 0.1% Triton X-100. Then added 50 μL Strep-HRP and washed twice. Equal volumes (100 μL) of PeroxyGlow A and B were added to each well and immediately take chemiluminescent readings. Data were analyzed by GraphPad Prism 9 software based on chemiluminescence readings of chemiluminescent substrates of Strep-HRP in each well. The IC50 value was were calculated by nonlinear curve fitting in GraphPad Prism 9.

FES = FES (Homo sapiens, UniProt P07332); assay: Selectivity profile (123 kinase panel); type: biochemical
ABL1 = ABL1 (Homo sapiens, UniProt P00519); assay: Selectivity profile (123 kinase panel); type: biochemical
AMPKα1/β1/γ1 = AMPKα1/β1/γ1 (Homo sapiens, UniProt P54619+Q13131+Q9Y478); assay: Selectivity profile (123 kinase panel); type: biochemical
MST3 = MST3 (Homo sapiens, UniProt Q9Y6E0); assay: Selectivity profile (123 kinase panel); type: biochemical
JAK1 = JAK1 (Homo sapiens, UniProt P23458); assay: Selectivity profile (123 kinase panel); type: biochemical
NEK1 = NEK1 (Homo sapiens, UniProt Q96PY6); assay: Selectivity profile (123 kinase panel); type: biochemical
CHK2 = CHK2 (Homo sapiens, UniProt O96017); assay: Selectivity profile (123 kinase panel); type: biochemical
PARP8 = PARP8 (Homo sapiens, UniProt Q8N3A8); assay: Selectivity profile (other isoforms of PARP and NRP family); type: biochemical

FES, sequence (P07332 whole entry, species assumed): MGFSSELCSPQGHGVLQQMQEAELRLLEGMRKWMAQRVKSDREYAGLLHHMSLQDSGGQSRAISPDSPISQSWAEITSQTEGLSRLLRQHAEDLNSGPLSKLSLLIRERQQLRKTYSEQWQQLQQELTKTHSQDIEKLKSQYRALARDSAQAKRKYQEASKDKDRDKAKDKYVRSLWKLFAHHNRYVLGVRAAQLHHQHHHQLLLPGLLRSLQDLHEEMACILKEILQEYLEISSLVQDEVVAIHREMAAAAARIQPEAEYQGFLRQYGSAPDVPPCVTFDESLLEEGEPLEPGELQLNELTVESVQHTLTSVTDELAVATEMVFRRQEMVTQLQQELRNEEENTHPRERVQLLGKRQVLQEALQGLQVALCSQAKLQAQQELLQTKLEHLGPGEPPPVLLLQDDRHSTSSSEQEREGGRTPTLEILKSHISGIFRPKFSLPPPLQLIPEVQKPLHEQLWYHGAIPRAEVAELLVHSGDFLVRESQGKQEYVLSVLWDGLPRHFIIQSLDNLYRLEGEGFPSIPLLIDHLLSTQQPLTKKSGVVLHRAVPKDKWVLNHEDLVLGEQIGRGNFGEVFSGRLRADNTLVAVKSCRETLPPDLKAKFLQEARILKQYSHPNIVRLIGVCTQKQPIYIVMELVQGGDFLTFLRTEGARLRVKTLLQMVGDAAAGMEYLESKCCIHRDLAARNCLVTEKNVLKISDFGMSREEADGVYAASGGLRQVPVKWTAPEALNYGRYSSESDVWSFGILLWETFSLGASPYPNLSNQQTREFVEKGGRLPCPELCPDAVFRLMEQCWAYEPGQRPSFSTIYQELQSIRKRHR
FGFR4, sequence (P22455 22-802, species assumed): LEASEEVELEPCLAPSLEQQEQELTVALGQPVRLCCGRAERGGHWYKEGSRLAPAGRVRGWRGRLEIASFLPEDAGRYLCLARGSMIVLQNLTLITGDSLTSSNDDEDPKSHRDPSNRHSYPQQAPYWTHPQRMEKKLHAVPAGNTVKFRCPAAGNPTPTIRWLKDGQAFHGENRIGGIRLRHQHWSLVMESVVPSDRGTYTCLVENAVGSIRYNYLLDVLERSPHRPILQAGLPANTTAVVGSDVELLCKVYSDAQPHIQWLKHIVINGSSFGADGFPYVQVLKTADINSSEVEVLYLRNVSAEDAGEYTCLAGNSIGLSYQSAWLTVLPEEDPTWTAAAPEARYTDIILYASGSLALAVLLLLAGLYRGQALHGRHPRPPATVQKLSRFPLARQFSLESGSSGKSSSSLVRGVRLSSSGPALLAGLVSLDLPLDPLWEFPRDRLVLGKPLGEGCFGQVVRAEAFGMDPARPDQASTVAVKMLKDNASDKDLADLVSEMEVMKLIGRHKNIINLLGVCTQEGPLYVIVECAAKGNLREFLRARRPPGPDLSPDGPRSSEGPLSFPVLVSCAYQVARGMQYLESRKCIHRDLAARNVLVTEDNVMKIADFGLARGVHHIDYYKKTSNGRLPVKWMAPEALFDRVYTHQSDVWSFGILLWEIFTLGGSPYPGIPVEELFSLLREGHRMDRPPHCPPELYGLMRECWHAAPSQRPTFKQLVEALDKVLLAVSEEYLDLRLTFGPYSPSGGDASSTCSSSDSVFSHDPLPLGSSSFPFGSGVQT
ABL1, sequence (P00519 whole entry): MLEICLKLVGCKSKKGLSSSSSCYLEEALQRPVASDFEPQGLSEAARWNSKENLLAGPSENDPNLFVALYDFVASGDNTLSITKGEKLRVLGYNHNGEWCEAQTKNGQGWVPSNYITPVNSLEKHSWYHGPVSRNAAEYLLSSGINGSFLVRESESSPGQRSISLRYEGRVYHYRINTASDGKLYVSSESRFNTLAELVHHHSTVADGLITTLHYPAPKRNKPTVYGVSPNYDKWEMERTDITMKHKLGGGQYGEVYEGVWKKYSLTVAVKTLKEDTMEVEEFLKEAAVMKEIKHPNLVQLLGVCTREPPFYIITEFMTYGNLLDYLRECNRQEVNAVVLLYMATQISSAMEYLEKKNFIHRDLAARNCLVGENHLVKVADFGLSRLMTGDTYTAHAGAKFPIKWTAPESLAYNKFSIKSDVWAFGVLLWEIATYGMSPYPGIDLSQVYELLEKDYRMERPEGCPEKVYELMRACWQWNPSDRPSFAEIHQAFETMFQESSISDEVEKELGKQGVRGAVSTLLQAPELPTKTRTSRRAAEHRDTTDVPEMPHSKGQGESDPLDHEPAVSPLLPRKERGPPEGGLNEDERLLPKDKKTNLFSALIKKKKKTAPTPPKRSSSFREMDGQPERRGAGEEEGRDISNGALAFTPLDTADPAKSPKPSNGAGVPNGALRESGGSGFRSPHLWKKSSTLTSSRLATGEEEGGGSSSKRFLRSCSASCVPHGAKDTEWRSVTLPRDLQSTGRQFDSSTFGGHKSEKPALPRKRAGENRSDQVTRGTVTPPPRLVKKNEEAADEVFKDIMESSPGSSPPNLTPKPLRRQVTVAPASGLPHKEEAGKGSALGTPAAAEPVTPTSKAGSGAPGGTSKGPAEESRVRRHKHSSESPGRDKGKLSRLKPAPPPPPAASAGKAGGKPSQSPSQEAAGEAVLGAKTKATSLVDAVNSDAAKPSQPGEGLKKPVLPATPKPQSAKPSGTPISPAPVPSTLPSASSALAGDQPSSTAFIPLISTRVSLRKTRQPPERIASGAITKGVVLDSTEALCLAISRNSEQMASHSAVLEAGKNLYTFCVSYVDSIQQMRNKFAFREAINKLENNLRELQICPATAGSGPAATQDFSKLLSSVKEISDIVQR
EPHB4, sequence (P54760 16-987, species assumed): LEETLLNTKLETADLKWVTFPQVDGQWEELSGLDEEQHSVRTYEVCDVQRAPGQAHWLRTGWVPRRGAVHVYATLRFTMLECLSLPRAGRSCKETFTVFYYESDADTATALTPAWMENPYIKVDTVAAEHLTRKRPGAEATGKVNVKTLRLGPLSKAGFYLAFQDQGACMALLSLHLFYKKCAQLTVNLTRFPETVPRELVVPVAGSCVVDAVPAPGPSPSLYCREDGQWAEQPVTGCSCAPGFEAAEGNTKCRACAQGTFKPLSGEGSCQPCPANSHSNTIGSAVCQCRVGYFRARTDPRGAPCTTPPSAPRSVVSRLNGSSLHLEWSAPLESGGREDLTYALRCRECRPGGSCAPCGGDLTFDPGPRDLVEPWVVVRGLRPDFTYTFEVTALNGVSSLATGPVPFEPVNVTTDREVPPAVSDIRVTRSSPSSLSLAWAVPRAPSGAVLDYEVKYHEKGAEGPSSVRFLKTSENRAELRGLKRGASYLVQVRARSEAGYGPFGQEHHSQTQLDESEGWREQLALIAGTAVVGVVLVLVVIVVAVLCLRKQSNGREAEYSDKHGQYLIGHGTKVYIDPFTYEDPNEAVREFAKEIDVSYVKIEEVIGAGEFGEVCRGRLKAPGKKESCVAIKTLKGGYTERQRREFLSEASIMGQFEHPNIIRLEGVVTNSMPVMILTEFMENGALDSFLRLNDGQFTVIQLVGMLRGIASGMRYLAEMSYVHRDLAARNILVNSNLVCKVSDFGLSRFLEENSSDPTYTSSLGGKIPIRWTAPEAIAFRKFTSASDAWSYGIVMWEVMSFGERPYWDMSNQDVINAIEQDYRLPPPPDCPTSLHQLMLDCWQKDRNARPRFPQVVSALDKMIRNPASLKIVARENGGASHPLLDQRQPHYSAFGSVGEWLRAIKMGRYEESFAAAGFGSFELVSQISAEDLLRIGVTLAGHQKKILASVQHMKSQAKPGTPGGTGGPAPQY
KDR, sequence (P35968 20-1356): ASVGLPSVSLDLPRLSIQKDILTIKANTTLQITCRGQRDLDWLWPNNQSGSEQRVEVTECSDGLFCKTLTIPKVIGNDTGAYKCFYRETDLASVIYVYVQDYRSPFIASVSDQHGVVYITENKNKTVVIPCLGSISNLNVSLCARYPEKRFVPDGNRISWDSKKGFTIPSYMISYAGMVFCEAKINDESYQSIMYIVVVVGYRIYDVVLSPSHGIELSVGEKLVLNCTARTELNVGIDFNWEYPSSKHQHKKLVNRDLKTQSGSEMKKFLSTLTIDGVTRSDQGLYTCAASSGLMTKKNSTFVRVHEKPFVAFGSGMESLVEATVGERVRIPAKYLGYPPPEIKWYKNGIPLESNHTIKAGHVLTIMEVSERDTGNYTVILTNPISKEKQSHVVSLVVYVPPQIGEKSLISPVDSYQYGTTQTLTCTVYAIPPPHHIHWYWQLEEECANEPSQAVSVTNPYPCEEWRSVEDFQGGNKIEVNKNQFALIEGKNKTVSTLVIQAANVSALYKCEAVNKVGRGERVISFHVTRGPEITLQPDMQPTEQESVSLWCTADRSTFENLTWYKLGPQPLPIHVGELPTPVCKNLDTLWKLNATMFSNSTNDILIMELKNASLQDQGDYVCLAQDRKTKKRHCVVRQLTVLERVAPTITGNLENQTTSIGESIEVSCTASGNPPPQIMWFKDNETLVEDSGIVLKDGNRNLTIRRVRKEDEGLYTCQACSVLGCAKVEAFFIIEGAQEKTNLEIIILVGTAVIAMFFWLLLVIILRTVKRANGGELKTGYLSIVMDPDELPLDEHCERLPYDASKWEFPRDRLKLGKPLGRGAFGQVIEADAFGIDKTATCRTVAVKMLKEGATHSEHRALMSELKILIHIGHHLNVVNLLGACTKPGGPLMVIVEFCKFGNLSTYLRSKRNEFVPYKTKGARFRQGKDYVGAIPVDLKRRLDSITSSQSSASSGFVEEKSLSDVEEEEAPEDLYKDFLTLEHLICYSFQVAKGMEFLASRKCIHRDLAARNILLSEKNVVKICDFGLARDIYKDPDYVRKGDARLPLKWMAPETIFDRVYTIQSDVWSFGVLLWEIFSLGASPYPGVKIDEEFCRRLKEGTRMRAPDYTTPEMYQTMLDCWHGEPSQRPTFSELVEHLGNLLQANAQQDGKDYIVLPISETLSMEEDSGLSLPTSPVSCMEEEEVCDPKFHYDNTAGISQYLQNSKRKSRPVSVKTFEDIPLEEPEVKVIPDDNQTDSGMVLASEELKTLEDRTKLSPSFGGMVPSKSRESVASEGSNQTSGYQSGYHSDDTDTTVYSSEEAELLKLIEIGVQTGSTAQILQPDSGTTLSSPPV

NC(N)=NCCC[C@H](NCN1CCN(C(=O)c2cc(Cc3n[nH]c(=O)c4ccccc34)ccc2F)CC1)C(=O)O [PPNR-4]
> 10 µM: IC50 (ACK) | IC50 (NuaK2) | IC50 (DAPK1) | IC50 (EPHA7) | IC50 (HEK-293) | IC50 (L02) | IC50 (HEL-299) | IC50 (PNT1A) | IC50 (FHC) | IC50 (MCF-10A) | IC50 (MRCKα) | IC50 (FGFR1) | IC50 (DCAMKL2) | IC50 (FGFR4) | IC50 (MST1) | IC50 (EPHB4) | IC50 (KDR) | IC50 (NRP2) | IC50 (EPHA5) | IC50 (FES) | IC50 (ABL1) | IC50 (AMPKα1/β1/γ1) | IC50 (MST3) | IC50 (JAK1) | IC50 (NEK1) | IC50 (CHK2) | IC50 (PARP8)
0.00771 ± 0.00039 µM: IC50 (PARP1)
> 80%: inhibition at 2 µM (MDA-MB-231 cells; 2 μM, read-out: cell inhibition rate)
0.21 µM: IC50 (MDA-MB-231 cells; 168 h, concentration needed to reduce cell growth by 50% following 7 days cell treatment, read-out: IC50)
